Assay results taken from PMC10900488, “Synthesis and Evaluation of (Bis)benzyltetrahydroisoquinoline Alkaloids as Antiparasitic Agents” (JACS Au, 2024).
Like-named read-outs stand apart in the source and are kept apart here.

Columns and labels:
[1] = tested on: T. cruzi trypomastigotes; experiment: Antitrypomastigote assay (T. cruzi), resazurin; format: cell-based, Trypanosoma (T.) cruzi; conditions: 24 h, read-out: T. cruzi IC50 trypomastigotes
Experimental: (§1) T. cruzi also assumes several cell morphologies during its lifecycle, which differ between the insect vector and mammalian host. In the latter environment, the parasite transitions between extracellular bloodstream trypomastigotes and intracellular amastigotes; both forms are clinically relevant, particularly during the acute stage of Chagas disease.[34] In this work, antitrypanosomal activity was tested against both the amastigote form (evaluated microscopically using an ex vivo intracellular model using mice macrophages) and the trypomastigote form (using the resazurin in vitro assay).[33],[35] […] In silico predictions of pharmacokinetic profiles were carried out using the SwissADME webtool (see the Supporting Information for details).[36] […]
(§2) […] Cultivation was performed in 2% fetal calf serum supplemented RPMI-1640 medium.
(§3) The trypomastigotes were maintained in a humidified incubator at 37 °C and with 5% CO2. […]
(§4) Biological activity assays […]
The half inhibitory concentration (IC50) was determined from a sigmoidal regression of the concentration-response curves generated in GraphPadPrism7. […]
Treatment of the cells with selected compounds (serially diluted 1.2 to 150 μM) was performed in a humidified incubator in RPMI 1640 medium for 24 h at 37 °C and with 5% CO2. Resazurin (0.011% in PBS) was added subsequently to verify parasite viability. Benznidazole was used as a standard drug. The optical density was determined at 570 nm using the FilterMax F5 (Molecular Devices). […]

[2] = tested on: L. infantum amastigotes; experiment: Antiamastigote assay (L. infantum), ex vivo intracellular model of mice macrophages, microscopy; format: cell-based, Leishmania (L.) infantum; conditions: 96 h, read-out: L. infantum IC50 amastigotes
Experimental: (§5) Table 1 depicts the antileishmanial (L. infantum) activity evaluation performed against both the amastigote form (evaluated microscopically using an ex vivo intracellular model of mice macrophages) and the promastigote one (using an MTT colorimetric method).[32],[33] The cytotoxicity was evaluated against NCTC cells using an MTT colorimetric method and the selectivity index was determined using the ratio between the CC50 values (NCTC cells) and the IC50 values (amastigotes).[32] […] With respect to the substituents on the C ring, larger, hydrophobic groups conferred greater bioactivity (e.g., 9b–d), whereas small, hydrophilic groups such as a hydroxyl group afford modest to poor bioactivity.
(§6) Leishmania (L.) infantum (MHOM/BR/1972/LD) amastigotes were obtained from golden hamsters (Mesocricetus auratus) spleens following 60-70 days of infection via differential centrifugation. The Stauber method was used to determine the number of parasites.12 […]
(§7) Peritoneal macrophages were obtained via washing the peritoneal cavity of BALB/c mice with 10% foetal calf serum supplemented RPMI-1640 medium (pH 7.2). The macrophages were maintained in a humidified incubator at 37 °C and with 5% CO2.
as §4
Antiamastigote Assay (L. infantum)
Peritoneal macrophages (1 × 10^5/well) were added to a 16-well slide chambers (NUNC) and incubated with 5% CO2 at 37 °C. The cells were subsequently infected with L. infantum amastigotes (10:1 amastigotes/macrophage) for 24 h. Treatment of the cells with selected compounds (serially diluted 1.2 to 150 μM) was performed in a humidified incubator for 96 h at 37 °C and with 5% CO2. Untreated cells were used as a negative control and miltefosine was used as a standard drug. The treated cells were fixed on slides with methanol, stained with Giemsa and observed under a light microscope.13 The infection index was used in order to determine the half inhibitory concentration (IC50) (no. infected macrophages × no. amastigotes / total no. […]

[3] = tested on: T. cruzi amastigotes; experiment: Antiamastigote assay (T. cruzi), ex vivo intracellular model using mice macrophages, microscopy; format: cell-based, Trypanosoma (T.) cruzi
Experimental: as §1, §2, §3, §7, §4
Peritoneal macrophages (1 × 10^5 cells/well) obtained from the peritoneal cavity of BALB/C mice were added to 16-well chambers (NUNC, Thermo Fischer Scientific). The cells were infected with trypomastigotes (10:1 parasites/macrophage) for 2 h. Then treatment of the infected macrophages with selected compounds (serially diluted 1.2 to 100 μM) was performed in a humidified incubator for 48 h at 37 °C and with 5% CO2. The treated cells were fixed on slides using methanol, stained with Giemsa and observed under a light microscope (EVOS M5000, Thermo, USA) with digital image equipment. The infection index was used in order to determine the half inhibitory concentration (IC50) (no. infected macrophages × no. amastigotes / total no.

[4] = Mammalian toxicity, MTT colorimetric; format: cell-based, murine; conditions: mouse
Experimental: as §5, with “bioactivity. […]” for “bioactivity.”
Murine conjunctive fibroblasts NCTC clone 929 (ATCC) were maintained in 10% foetal calf serum supplemented RPMI-1640 medium (pH 7.2) at 37 °C in a humidified incubator with 5% CO2. […]
as §4
NCTC cells (6 × 10^4/well) were added to a 96-well plate. Treatments of the cells with selected compounds (serially diluted 1.5 to 200 μM) was performed in a humidified incubator for 96 h at 37 °C and with 5% CO2.
The MTT colorimetric method was used to determine the 50% cytotoxic concentration (CC50) and the selectivity index (CC50 against NCTC cells/IC50 against amastigotes).15 […]
[…] At 6 h and 24 h post-treatment, a 1 mL aliquot was taken for imaging. The cell cycle experiment was preformed twice independently.
Generation of mNG::RAD51 tagged cell line
The single-stranded DNA-binding protein RAD51, associated with DNA Repair, LmxM.28.0550 was tagged with endogenous fluorescent protein mNeonGreen (mNG) at the N-terminus. […]
Primers for constructs and sgRNA were designed using LeishGEdit (http://www.leishGEdit.net).
PCR was at 94 °C for 5 min, followed by 35 cycles at 94 °C (15 sec), 65 °C (15 sec), 72 °C (2 min) then finally 72 °C (1 min).
PCR was at 94 °C for 30 sec, followed by 30 cycles at 94 °C (30 sec), 60 °C (30 sec), 72 °C (30 sec) then finally 72 °C (2 min). […] Combined PCR products were precipitated for 20 min with 10 μL 3M sodium acetate and 300 μL EtOH, pelleted at 14000 min-1 30 min, washed once with 70% EtOH, re-pelleted and resuspended in […]
Promastigotes (1 × 10^7 cells) were combined with PCR products and transfected using the Amaxa Nucleofector II.17 Electroporation was performed using 2 mm cuvettes on the X-100 program, followed by immediate suspension in pre-warmed M199 medium. Successful transfectants were selected with 20 μg mL-1 Puromycin 15 h after transfection, taking 4 days to reach stable growth in culture. mNG::RAD51 nuclear foci studies mNG::RAD51 promastigotes (5 × 10^6 cells mL-1) in 7 mL of M199 medium were treated with 7 μL o f compound (S)-9a or (S)-9b dissolved in DMSO giving a final concentration of 50 μM. Phleomycin was used as a positive control at a final concentration of 25 μg mL-1. At T = 0, 15, 30, 60 min, and 2, 6, 24 h post-treatment a 0.8 mL aliquot was taken for imaging.

[5] = tested on: L. infantum promastigotes; experiment: Antipromastigote assay (L. infantum), MTT colorimetric; format: cell-based, Leishmania (L.) infantum; conditions: 48 h; for IC50: Leishmania infantum, read-out: L. infantum IC50 promastigotes
Experimental: as §5, §6
Biological activity assays
Antipromastigote Assay (L. infantum)
L. infantum promastigotes (1 × 10^6 cells/well) were added to a 96-well plates. Treatment of the cells with selected compounds (serially diluted 0.14 to 200 μM) was performed in M199 medium supplemented with 0.25% hemin and 10% fetal bovine serum for 48 h at 24 °C. The MTT colorimetric assay was used to determine the activity (IC50) of the compounds. Miltefosine was used as a standard drug and untreated promastigotes were used as a negative control. The half inhibitory concentration (IC50) was determined from a sigmoidal regression of the concentration-response curves generated in GraphPadPrism7. […]

[6] = Trypanosoma cruzi, ± SD, resazurin
[7] = Leishmania infantum, Peritoneal macrophage, ± SD, intracellular, peritoneal macrophages
[8] = Trypanosoma cruzi, Peritoneal macrophage, 48 h, ± SD, read-out: T. cruzi IC50 amastigotes
[9] = Leishmania infantum, Peritoneal macrophage
[10] = ± SD, NCTC cells, MTT, 96 h, read-out: CC50

Compound	IC50 [1, 6]	IC50 [2, 7]	IC50 [3, 8]	CC50 at 96 h [4]	IC50 ([5]; ± SD, MTT)	further results
COc1ccc(COc2ccc(C[C@@H]3c4cc(OC)c(OC)cc4CCN3C)cc2Oc2ccc(C[C@H]3c4cc(OC)c(OC)cc4CCN3C)cc2)cc1 [(R,S)-12]	1.3 ± 0.7 µM	> 150 µM	> 100 µM	2.7 ± 1.6 µM	0.4 ± 0.2 µM	L. infantum IC50 promastigotes ([5]; ± SD, MTT): submicromolar
O=C(Cn1ccnc1[N+](=O)[O-])NCc1ccccc1 [benznidazole, reference compound]	12.8 ± 0.7 µM	–	5 ± 1.5 µM	> 200 µM	–	–
COc1ccc(COc2ccc(C[C@H]3c4cc(OC)c(OC)cc4CCN3C)cc2Oc2ccc(C[C@@H]3c4cc(OC)c(OC)cc4CCN3C)cc2)cc1 [(S,R)-12]	1.7 ± 0.3 µM	> 150 µM	> 100 µM	4.7 ± 1.7 µM	0.7 ± 0.1 µM	L. infantum IC50 promastigotes ([5]; ± SD, MTT): submicromolar
COc1cc2c(cc1OC)[C@H](Cc1ccc(Oc3cc(C[C@H]4c5cc(OC)c(OC)cc5CCN4C)ccc3O)cc1)N(C)CC2 [(S,S)-13, (+)-dauricine]	5.1 ± 4.8 µM	> 150 µM	2.3 ± 1.1 µM	15.9 ± 0.8 µM	5.5 ± 0.6 µM	–
COc1cc2c(cc1OC)[C@H](Cc1ccc(Oc3cc(C[C@H]4c5cc(OC)c(OC)cc5CCN4C)ccc3OC)cc1)N(C)CC2 [(S,S)-11, (+)-O-methylthalibrine]	3.7 ± 3.6 µM	> 150 µM	> 100 µM	11.4 ± 0.2 µM	0.7 ± 0.01 µM	–
COc1cc2c(cc1OC)[C@@H](Cc1ccc(OC)c(Oc3ccc(C[C@H]4c5cc(OC)c(OC)cc5CCN4C)cc3)c1)N(C)CC2 [(R,S)-11]	6.5 ± 2.1 µM	> 150 µM	> 100 µM	7.3 ± 0.7 µM	0.6 ± 0.1 µM	–
COc1cc2c(cc1OC)[C@H](Cc1ccc(OCc3ccccc3)cc1)N(C)CC2 [(S)-9d]	< 10 µM	< 10 µM	3.2 ± 0.5 µM	6.6 ± 1.5 µM	3.7 ± 0.2 µM	IC50 ([1]; ± SD, resazurin): 7.6 ± 0.4 µM; IC50 ([2]; ± SD, intracellular, peritoneal macrophages): 7.5 ± 2.2 µM
COc1ccc(C[C@H]2c3cc(OC)c(OC)cc3CCN2C)cc1O [(S)-10a, (+)-laudanidine]	–	–	–	–	–	IC50 ([1]; Trypanosoma cruzi): > 150 µM; IC50 [2, 9]: > 150 µM; IC50 ([3]; Trypanosoma cruzi, Peritoneal macrophage, 48 h, read-out: T. cruzi IC50 amastigotes, ± SD): < 10 µM; IC50 ([3]; read-out: T. cruzi IC50 amastigotes, ± SD, peritoneal macrophages, 48 h): 5.9 ± 0.9 µM; CC50 at 96 h [4, 10]: > 200 µM; IC50 [5]: 95.4 ± 2 µM
COc1ccc(COc2ccc(C[C@H]3c4cc(OC)c(OC)cc4CCN3C)cc2Br)cc1 [(S)-9c]	11.1 ± 1.7 µM	> 150 µM	3.3 ± 0.01 µM	6.3 ± 2.3 µM	5.2 ± 1.3 µM	–
COc1cc2c(cc1OC)[C@H](Cc1ccc(O)cc1)N(C)CC2 [(S)-10b, (+)-armepavine]	124 ± 2.3 µM	> 150 µM	> 100 µM	> 200 µM	36.2 ± 5.2 µM	–
COc1cc2c(cc1OC)[C@@H](Cc1ccc(OC)c(OCc3ccccc3)c1)N(C)CC2 [(R)-9b]	72.3 ± 3 µM	13.1 ± 0.8 µM	–	57.3 ± 3.3 µM	3.3 ± 1.6 µM	–
CCCCCCCCCCCCCCCCOP(=O)([O-])OCC[N+](C)(C)C [miltefosine, reference compound]	–	6.5 ± 3 µM	–	120 ± 4.2 µM	–	–
COc1ccc(C[C@@H]2c3cc(OC)c(OC)cc3CCN2C)cc1O [(R)-10a, (–)-laudanidine]	–	–	–	–	–	IC50 ([1]; Trypanosoma cruzi): > 150 µM; IC50 [2, 9]: > 150 µM; CC50 at 96 h [4, 10]: > 200 µM; IC50 [5]: 30.2 ± 4.8 µM
